Assay results as given in US20220281848A1, “PYRAZOLE-SUBSTITUTED PYRROLIDINONES AS HERBICIDES” (FMC Corporation, priority 2019, published 2022).

Tested on: plants
Assay: Test D pre-emergence, other plants of Tables D1 and D3
Type: in vivo
Details: preemergent, 20 DAA
In short: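 Seeds treated with herbicide safener; sown in soil; glasshouse, 16 h light, 65% humidity. Sprayed day 1 (pre) or ~day 12 (post). Spray in 0.2% v/v adjuvant. Scored 0–100 damage: 20 DAA pre, 15 d post.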

SMILES: CN1CC(c2cc(C(F)(F)F)n(C)n2)C(C(=O)Nc2ccc(F)c(F)c2F)C1=O (racemic) [Compound 17]
- damage to plant (100=total damage to plant; 0=no damage to plant), ABUTH (rate 15): 0
- damage to plant (100=total damage to plant; 0=no damage to plant), ABUTH (rate 30): 0
- damage to plant (100=total damage to plant; 0=no damage to plant), ABUTH (rate 60): 0
- damage to plant (100=total damage to plant; 0=no damage to plant), ABUTH (rate 130): 0
- damage to plant (100=total damage to plant; 0=no damage to plant), ABUTH (rate 250): 0
- damage to plant (100=total damage to plant; 0=no damage to plant), ABUTH (rate 500): 10
- damage to plant (100=total damage to plant; 0=no damage to plant), AMARE (rate 15): 0
- damage to plant (100=total damage to plant; 0=no damage to plant), AMARE (rate 30): 0
- damage to plant (100=total damage to plant; 0=no damage to plant), AMARE (rate 60): 0
- damage to plant (100=total damage to plant; 0=no damage to plant), AMARE (rate 130): 0
- damage to plant (100=total damage to plant; 0=no damage to plant), AMARE (rate 250): 0
- damage to plant (100=total damage to plant; 0=no damage to plant), AMARE (rate 500): 0
- damage to plant (100=total damage to plant; 0=no damage to plant), BIDPI (rate 15): 0
- damage to plant (100=total damage to plant; 0=no damage to plant), BIDPI (rate 30): 0
- damage to plant (100=total damage to plant; 0=no damage to plant), BIDPI (rate 60): 0
- damage to plant (100=total damage to plant; 0=no damage to plant), BIDPI (rate 130): 0
- damage to plant (100=total damage to plant; 0=no damage to plant), BIDPI (rate 250): 0
- damage to plant (100=total damage to plant; 0=no damage to plant), BIDPI (rate 500): 0
- damage to plant (100=total damage to plant; 0=no damage to plant), BRAPL (rate 15): 20
- damage to plant (100=total damage to plant; 0=no damage to plant), BRAPL (rate 30): 60
- damage to plant (100=total damage to plant; 0=no damage to plant), BRAPL (rate 60): 80
- damage to plant (100=total damage to plant; 0=no damage to plant), BRAPL (rate 130): 80
- damage to plant (100=total damage to plant; 0=no damage to plant), BRAPL (rate 250): 80
- damage to plant (100=total damage to plant; 0=no damage to plant), BRAPL (rate 500): 90
- damage to plant (100=total damage to plant; 0=no damage to plant), CYPES (rate 15): 0
- damage to plant (100=total damage to plant; 0=no damage to plant), CYPES (rate 30): 0
- damage to plant (100=total damage to plant; 0=no damage to plant), CYPES (rate 60): 0
- damage to plant (100=total damage to plant; 0=no damage to plant), CYPES (rate 130): 0
- damage to plant (100=total damage to plant; 0=no damage to plant), CYPES (rate 250): 0
- damage to plant (100=total damage to plant; 0=no damage to plant), CYPES (rate 500): 0
- damage to plant (100=total damage to plant; 0=no damage to plant), DIGSA (rate 15): 30
- damage to plant (100=total damage to plant; 0=no damage to plant), DIGSA (rate 30): 90
- damage to plant (100=total damage to plant; 0=no damage to plant), DIGSA (rate 60): 90
- damage to plant (100=total damage to plant; 0=no damage to plant), DIGSA (rate 130): 90
- damage to plant (100=total damage to plant; 0=no damage to plant), DIGSA (rate 250): 90
- damage to plant (100=total damage to plant; 0=no damage to plant), DIGSA (rate 500): 90
- damage to plant (100=total damage to plant; 0=no damage to plant), ECHCG (rate 15): 0
- damage to plant (100=total damage to plant; 0=no damage to plant), ECHCG (rate 30): 90
- damage to plant (100=total damage to plant; 0=no damage to plant), ECHCG (rate 60): 90
- damage to plant (100=total damage to plant; 0=no damage to plant), ECHCG (rate 130): 90
- damage to plant (100=total damage to plant; 0=no damage to plant), ECHCG (rate 250): 100
- damage to plant (100=total damage to plant; 0=no damage to plant), ECHCG (rate 500): 100
- damage to plant (100=total damage to plant; 0=no damage to plant), ELEIN (rate 15): 0
- damage to plant (100=total damage to plant; 0=no damage to plant), ELEIN (rate 30): 0
- damage to plant (100=total damage to plant; 0=no damage to plant), ELEIN (rate 60): 0
- damage to plant (100=total damage to plant; 0=no damage to plant), ELEIN (rate 130): 0
- damage to plant (100=total damage to plant; 0=no damage to plant), ELEIN (rate 250): 0
- damage to plant (100=total damage to plant; 0=no damage to plant), ELEIN (rate 500): 0
- damage to plant (100=total damage to plant; 0=no damage to plant), EPHHL (rate 15): 0
- damage to plant (100=total damage to plant; 0=no damage to plant), EPHHL (rate 30): 0
- damage to plant (100=total damage to plant; 0=no damage to plant), EPHHL (rate 60): 0
- damage to plant (100=total damage to plant; 0=no damage to plant), EPHHL (rate 130): 0
- damage to plant (100=total damage to plant; 0=no damage to plant), EPHHL (rate 250): 0
- damage to plant (100=total damage to plant; 0=no damage to plant), EPHHL (rate 500): 10
- damage to plant (100=total damage to plant; 0=no damage to plant), GLXMA (rate 15): 0
- damage to plant (100=total damage to plant; 0=no damage to plant), GLXMA (rate 30): 0
- damage to plant (100=total damage to plant; 0=no damage to plant), GLXMA (rate 60): 0
- damage to plant (100=total damage to plant; 0=no damage to plant), GLXMA (rate 130): 0
- damage to plant (100=total damage to plant; 0=no damage to plant), GLXMA (rate 250): 0
- damage to plant (100=total damage to plant; 0=no damage to plant), GLXMA (rate 500): 0
- damage to plant (100=total damage to plant; 0=no damage to plant), IPOHE (rate 15): 0
- damage to plant (100=total damage to plant; 0=no damage to plant), IPOHE (rate 30): 0
- damage to plant (100=total damage to plant; 0=no damage to plant), IPOHE (rate 60): 0
- damage to plant (100=total damage to plant; 0=no damage to plant), IPOHE (rate 130): 0
- damage to plant (100=total damage to plant; 0=no damage to plant), IPOHE (rate 250): 0
- damage to plant (100=total damage to plant; 0=no damage to plant), IPOHE (rate 500): 0
- damage to plant (100=total damage to plant; 0=no damage to plant), ORYSA (rate 15): 0
- damage to plant (100=total damage to plant; 0=no damage to plant), ORYSA (rate 30): 0
- damage to plant (100=total damage to plant; 0=no damage to plant), ORYSA (rate 60): 0
- damage to plant (100=total damage to plant; 0=no damage to plant), ORYSA (rate 130): 0
- damage to plant (100=total damage to plant; 0=no damage to plant), ORYSA (rate 250): 0
- damage to plant (100=total damage to plant; 0=no damage to plant), ORYSA (rate 500): 0
- damage to plant (100=total damage to plant; 0=no damage to plant), PANMI (rate 15): 0
- damage to plant (100=total damage to plant; 0=no damage to plant), PANMI (rate 30): 0
- damage to plant (100=total damage to plant; 0=no damage to plant), PANMI (rate 60): 0
- damage to plant (100=total damage to plant; 0=no damage to plant), PANMI (rate 130): 0
- damage to plant (100=total damage to plant; 0=no damage to plant), PANMI (rate 250): 0
- damage to plant (100=total damage to plant; 0=no damage to plant), PANMI (rate 500): 0
- damage to plant (100=total damage to plant; 0=no damage to plant), SETFA (rate 15): 0
- damage to plant (100=total damage to plant; 0=no damage to plant), SETFA (rate 30): 80
- damage to plant (100=total damage to plant; 0=no damage to plant), SETFA (rate 60): 90
- damage to plant (100=total damage to plant; 0=no damage to plant), SETFA (rate 130): 90
- damage to plant (100=total damage to plant; 0=no damage to plant), SETFA (rate 250): 90
- damage to plant (100=total damage to plant; 0=no damage to plant), SETFA (rate 500): 90
- damage to plant (100=total damage to plant; 0=no damage to plant), SORVU (rate 15): 0
- damage to plant (100=total damage to plant; 0=no damage to plant), SORVU (rate 30): 0
- damage to plant (100=total damage to plant; 0=no damage to plant), SORVU (rate 60): 0
- damage to plant (100=total damage to plant; 0=no damage to plant), SORVU (rate 130): 0
- damage to plant (100=total damage to plant; 0=no damage to plant), SORVU (rate 250): 0
